Test results from US12435108B2, “Teixobactin analogue and use thereof” (SUNSHINE LAKE PHARMA CO., LTD., priority 2019, dated 2025).
Read-outs that look alike come from different tables or passages of the source.

Tests used:
[1] = Test Method 2: 96-well plate, CAMHB, 35±2 °C, 20-24 hours, highest concentration 64 μg/mL
[2] = 96-well plate, CAMHB, 35±2 °C, 20-24 hours, highest concentration 64 μg/mL

Description for MRSA (ATCC43300): (§1) For the determination of the minimum inhibitory concentration (MIC), according to the CLSI standard, the minimum inhibitory concentration of 3 ATCC standard strains (2 strains of Staphylococcus aureus and 1 strain of Enterococcus faecium) was tested by two independent repeated experiments. Compounds were diluted two-fold in a 96-well plate from the highest detection concentration of 64 μg/mL. The test plate was placed in a common incubator and incubated at 35±2° C. for 20-24 hours. The growth of bacteria in the wells was observed and recorded. Inoculation method: 5-10 bacterial single colonies from the solid medium plate resuspended in 500 μL of 1.02×CAMHB, and then OD600 was adjusted to 0.1-0.15 with a spectrophotometer; then the bacteria were diluted 300-fold with 1.02×CAMHB to ˜2×10^5 CFU/ml (stepwise dilution, first 10-fold and then 30-fold), and the prepared bacterial inoculum was inoculated in 96-well plate within 15 minutes, the number of inoculated bacteria could be obtained by plate count. Colony count: the inoculated bacteria was diluted with liquid medium from 10^−1 to 10^−3 (such as 100 μL of bacterial inoculum+900 μL of 1.02×CAMHB); 100 μl of the above bacterial dilution was evenly spread on a TSA or TSA II plate, with 2 replicates per dilution. After the medium was absorbed by TSA or TSA II for 10 minutes, the plate was inverted and cultured at 35±2° C. for 24 hours in an incubator. Record of minimum inhibitory concentration and statistics of colony count: the minimum inhibitory concentration of each compound was recorded referring to the CLSI standard; the number of colonies of bacterial inoculum of different dilutions on the TSA or TSA II plate was counted and the amount of bacterial inoculation was calculated. Selection of strain types: MRSA (ATCC43300), MSSA (ATCC29213) and VRE (ATCC700221).
Description for MSSA (ATCC29213): as §1
Description for VRE (ATCC700221): as §1

Compound | In vitro antibacterial activity MIC, MSSA(ATCC29213) (MSSA (ATCC29213); [1]) | In vitro antibacterial activity MIC, MRSA(ATCC43300) (MRSA (ATCC43300); [2]) | In vitro antibacterial activity MIC, VRE(ATCC700221) (VRE (ATCC700221); [2]) | In vitro antibacterial activity MIC, MSSA(ATCC29213) (MSSA (ATCC29213); ATCC29213) | In vitro antibacterial activity MIC, MRSA(ATCC43300) (MRSA (ATCC43300); ATCC43300) | In vitro antibacterial activity MIC, VRE(ATCC700221) (VRE (ATCC700221); ATCC700221)
CC[C@H](C)[C@H](NC(=O)[C@@H](Cc1ccccc1)NC)C(=O)N[C@@H](CO)C(=O)N[C@H](CCC(N)=O)C(=O)N[C@@H](C(=O)N[C@H](C(=O)N[C@@H](CO)C(=O)N[C@H]1C(=O)N[C@@H](C)C(=O)NC(C)(C)C(=O)N[C@@H]([C@@H](C)CC)C(=O)O[C@H]1C)[C@@H](C)CC)[C@@H](C)CC.O=C(O)C(F)(F)F [Example 26] | 64 µg/mL | 32 µg/mL | >64 µg/mL | – | – | –
CC[C@H](C)[C@H](NC(=O)[C@@H](Cc1ccc2ccccc2c1)NC)C(=O)N[C@@H](CO)C(=O)N[C@H](CCC(N)=O)C(=O)N[C@@H](C(=O)N[C@H](C(=O)N[C@@H](CO)C(=O)N[C@H]1C(=O)N[C@@H](C)C(=O)NC2(CCCCCC2)C(=O)N[C@@H]([C@@H](C)CC)C(=O)O[C@H]1C)[C@@H](C)CC)[C@@H](C)CC.O=C(O)C(F)(F)F [Example 24] | – | – | – | 4 µg/mL | 4 µg/mL | 4 µg/mL
C=C[C@H]1C[C@]12NC(=O)[C@H](C)NC(=O)[C@H](NC(=O)[C@H](CO)NC(=O)[C@@H](NC(=O)[C@H](NC(=O)[C@@H](CCC(N)=O)NC(=O)[C@H](CO)NC(=O)[C@@H](NC(=O)[C@@H](Cc1ccc3ccccc3c1)NC)[C@@H](C)CC)[C@@H](C)CC)[C@@H](C)CC)[C@H](C)OC(=O)[C@H]([C@@H](C)CC)NC2=O.O=C(O)C(F)(F)F [Example 22] | – | – | – | 2 µg/mL | 2 µg/mL | 4 µg/mL
CC[C@H](C)[C@H](NC(=O)[C@@H](Cc1ccc(-c2ccc(-c3ccccc3)cc2)cc1)NC)C(=O)N[C@@H](CO)C(=O)N[C@H](CCC(N)=O)C(=O)N[C@@H](C(=O)N[C@H](C(=O)N[C@@H](CO)C(=O)N[C@H]1C(=O)N[C@@H](C)C(=O)NC2(CC2)C(=O)N[C@@H]([C@@H](C)CC)C(=O)O[C@H]1C)[C@@H](C)CC)[C@@H](C)CC.O=C(O)C(F)(F)F [Example 21] | – | – | – | 8 µg/mL | 8 µg/mL | 8 µg/mL
CC[C@H](C)[C@H](NC(=O)[C@@H](Cc1csc2ccccc12)NC)C(=O)N[C@@H](CO)C(=O)N[C@H](CCC(N)=O)C(=O)N[C@@H](C(=O)N[C@H](C(=O)N[C@@H](CO)C(=O)N[C@H]1C(=O)N[C@@H](C)C(=O)NC2(CC2)C(=O)N[C@@H]([C@@H](C)CC)C(=O)O[C@H]1C)[C@@H](C)CC)[C@@H](C)CC.O=C(O)C(F)(F)F [Example 15] | – | – | – | 4 µg/mL | 4 µg/mL | 8 µg/mL
CC[C@H](C)[C@H](NC(=O)[C@@H](Cc1csc2ccccc12)NC)C(=O)N[C@@H](CO)C(=O)N[C@H](CCC(N)=O)C(=O)N[C@@H](C(=O)N[C@H](C(=O)N[C@@H](CO)C(=O)N[C@H]1C(=O)N[C@@H](C)C(=O)NC2(CCCCCC2)C(=O)N[C@@H]([C@@H](C)CC)C(=O)O[C@H]1C)[C@@H](C)CC)[C@@H](C)CC.O=C(O)C(F)(F)F [Example 17] | – | – | – | 4 µg/mL | 4 µg/mL | 8 µg/mL
C=C[C@H]1C[C@]12NC(=O)[C@H](C)NC(=O)[C@H](NC(=O)[C@H](CO)NC(=O)[C@@H](NC(=O)[C@H](NC(=O)[C@@H](CCC(N)=O)NC(=O)[C@H](CO)NC(=O)[C@@H](NC(=O)[C@@H](Cc1csc3ccccc13)NC)[C@@H](C)CC)[C@@H](C)CC)[C@@H](C)CC)[C@H](C)OC(=O)[C@H]([C@@H](C)CC)NC2=O.O=C(O)C(F)(F)F [Example 16] | – | – | – | 4 µg/mL | 4 µg/mL | 4 µg/mL
CC[C@H](C)[C@H](NC(=O)[C@@H](Cc1ccc(-c2ccccc2)cc1)NC)C(=O)N[C@@H](CO)C(=O)N[C@H](CCC(N)=O)C(=O)N[C@@H](C(=O)N[C@H](C(=O)N[C@@H](CO)C(=O)N[C@H]1C(=O)N[C@@H](C)C(=O)NC2(CC2)C(=O)N[C@@H]([C@@H](C)CC)C(=O)O[C@H]1C)[C@@H](C)CC)[C@@H](C)CC.O=C(O)C(F)(F)F [Example 18] | – | – | – | 2 µg/mL | 2 µg/mL | 2 µg/mL
C=C[C@H]1C[C@]12NC(=O)[C@H](C)NC(=O)[C@H](NC(=O)[C@H](CO)NC(=O)[C@@H](NC(=O)[C@H](NC(=O)[C@@H](CCC(N)=O)NC(=O)[C@H](CO)NC(=O)[C@@H](NC(=O)[C@@H](Cc1ccc(-c3ccccc3)cc1)NC)[C@@H](C)CC)[C@@H](C)CC)[C@@H](C)CC)[C@H](C)OC(=O)[C@H]([C@@H](C)CC)NC2=O.O=C(O)C(F)(F)F [Example 20] | – | – | – | 4 µg/mL | 4 µg/mL | 4 µg/mL
CC[C@H](C)[C@H](NC(=O)[C@@H](Cc1ccc(-c2ccc(Oc3ccccc3)cc2)cc1)NC)C(=O)N[C@@H](CO)C(=O)N[C@H](CCC(N)=O)C(=O)N[C@@H](C(=O)N[C@H](C(=O)N[C@@H](CO)C(=O)N[C@H]1C(=O)N[C@@H](C)C(=O)NC2(CC2)C(=O)N[C@@H]([C@@H](C)CC)C(=O)O[C@H]1C)[C@@H](C)CC)[C@@H](C)CC.O=C(O)C(F)(F)F [Example 25] | – | – | – | 4 µg/mL | 4 µg/mL | 4 µg/mL
CC[C@H](C)[C@H](NC(=O)[C@@H](Cc1csc2ccccc12)NC)C(=O)N[C@@H](CO)C(=O)N[C@H](CCC(N)=O)C(=O)N[C@@H](C(=O)N[C@H](C(=O)N[C@@H](CO)C(=O)N[C@H]1C(=O)N[C@@H](C)C(=O)N[C@@]2(C[C@H]2CC(F)F)C(=O)N[C@@H]([C@@H](C)CC)C(=O)O[C@H]1C)[C@@H](C)CC)[C@@H](C)CC.O=C(O)C(F)(F)F [Example 14] | – | – | – | 4 µg/mL | 4 µg/mL | 8 µg/mL
CC[C@H](C)[C@H](NC(=O)[C@@H](Cc1ccc(-c2ccccc2)cc1)NC)C(=O)N[C@@H](CO)C(=O)N[C@H](CCC(N)=O)C(=O)N[C@@H](C(=O)N[C@H](C(=O)N[C@@H](CO)C(=O)N[C@H]1C(=O)N[C@@H](C)C(=O)NC2(CCCCCC2)C(=O)N[C@@H]([C@@H](C)CC)C(=O)O[C@H]1C)[C@@H](C)CC)[C@@H](C)CC.O=C(O)C(F)(F)F [Example 19] | – | – | – | 4 µg/mL | 4 µg/mL | 4 µg/mL
CC[C@H](C)[C@H](NC(=O)[C@@H](Cc1ccccc1)NC)C(=O)N[C@@H](CO)C(=O)N[C@H](CCC(N)=O)C(=O)N[C@@H](C(=O)N[C@H](C(=O)N[C@@H](CO)C(=O)N[C@H]1C(=O)N[C@@H](C)C(=O)N[C@@]2(C[C@H]2CCO)C(=O)N[C@@H]([C@@H](C)CC)C(=O)O[C@H]1C)[C@@H](C)CC)[C@@H](C)CC.O=C(O)C(F)(F)F [Example 12] | 8 µg/mL | 8 µg/mL | – | – | – | –
